# In patent US9783488B2 (CHDI Foundation, Inc., priority 2013, dated 2017):
# Key:
# [1] = system: cellular histone deacetylase enzymatic activity in Jurkat E6-1 cells; experiment: Inhibition of cellular HDAC activity in Jurkat E6-1 cells, fluorogenic substrate Boc-Lys(Tfa)-AMC; format: cell-based; conditions: Homo sapiens, read-out: Cell IC50
# Method in brief: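 Jurkat E6.1 cells (75,000/well) were pre-treated with compound for 2 h at 37 °C, then given Boc-Lys(Tfa)-AMC (5× stock 500 μM) for 3 h. Cells were lysed with trypsin-containing buffer overnight, and released AMC fluorescence was read at Ex 355/Em 460 nm over a 16-point dilution series.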
# [2] = biological target: human catalytic domain HDAC4 protein (amino acids 648-1032) (Homo sapiens (Human), UniProt P56524); experiment: Inhibition of HDAC4 catalytic domain enzymatic activity, fluorogenic substrate Boc-Lys(Tfa)-AMC; conditions: HDAC4 catalytic domain enzyme, read-out: Biochemical HDAC4 IC50
# Sequence of human catalytic domain HDAC4 protein (amino acids 648-1032) (P56524 648-1032): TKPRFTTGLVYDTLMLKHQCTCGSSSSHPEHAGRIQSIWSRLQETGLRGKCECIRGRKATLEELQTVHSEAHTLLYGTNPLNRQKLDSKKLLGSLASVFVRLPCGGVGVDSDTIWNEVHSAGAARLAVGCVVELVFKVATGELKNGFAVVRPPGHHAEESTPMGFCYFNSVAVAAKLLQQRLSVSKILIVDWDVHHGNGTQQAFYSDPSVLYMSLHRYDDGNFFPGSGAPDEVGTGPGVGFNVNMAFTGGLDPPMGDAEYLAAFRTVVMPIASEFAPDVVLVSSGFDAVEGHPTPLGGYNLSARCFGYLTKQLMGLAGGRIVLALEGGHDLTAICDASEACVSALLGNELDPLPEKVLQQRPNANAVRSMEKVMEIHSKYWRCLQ
SMILES,IC50 [1] [nM],IC50 [2] [nM]
"Cc1c(F)cccc1[C@]1(C(=O)NO)CC[C@@H](c2ccc3cnn(C)c3c2F)C1 (relative stereo) [Example 83, (1S,3R*)-3-(7-Fluoro-1-methyl-1H-indazol-6-yl)-1-(3-fluoro-2-methylphenyl)-N-hydroxycyclopentanecarboxamide]",59,55
"Cc1c(F)cccc1[C@]1(C(=O)NO)CC[C@H](c2ccc3ncccc3c2)C1 (relative stereo) [Example 84, (1S,3S*)-1-(3-Fluoro-2-methylphenyl)-N-hydroxy-3-(quinolin-6-yl)cyclopentanecarboxamide]",180,48
"Cc1c(F)cccc1[C@]1(C(=O)NO)CC[C@@H](c2ccc3ncccc3c2)C1 (relative stereo) [Example 85, (1 S,3R*)-1-(3-Fluoro-2-methylphenyl)-N-hydroxy-3-(quinolin-6-yl)cyclopentanecarboxamide]",120,62
"Cc1c(F)cccc1[C@]1(C(=O)NO)CC[C@@H](N2CCOCC2)C1 (relative stereo) [Example 89, (1S,3R*)-1-(3-fluoro-2-methylphenyl)-N-hydroxy-3-morpholinocyclopentanecarboxamide]",7300,1100
"Cc1c(F)cccc1[C@]1(C(=O)NO)CC[C@H](N2CCOCC2)C1 (relative stereo) [Example 90, (1S,3S*)-1-(3-Fluoro-2-methylphenyl)-N-hydroxy-3-morpholinocyclopentanecarboxamide]",24000,2500
"Cc1c(F)cccc1[C@]1(C(=O)NO)CC[C@H](c2cncc(F)c2)C1 (stereo in doubt) [Example 9, (1S,3S*)-1-(3-fluoro-2-methyl-phenyl)-3-(5-fluoropyridin-3-yl)-N-hydroxycyclopentanecarboxamide]",1280,150
"Cc1c(F)cccc1[C@]1(C(=O)NO)CC[C@@H](c2cncc(F)c2)C1 (stereo in doubt) [Example 10, (1S,3R*)-1-(3-fluoro-2-methyl-phenyl)-3-(5-fluoropyridin-3-yl)-N-hydroxycyclopentanecarboxamide]",1390,140
"Cc1c(F)cccc1[C@@]1(C(=O)NO)CC[C@H](c2cncc(F)c2)C1 (stereo in doubt) [Example 39, (1R,3S*)-1-(3-fluoro-2-methylphenyl)-3-(5-fluoropyridin-3-yl)-N-hydroxycyclopentanecarboxamide]",8400,720
"Cc1c(F)cccc1[C@@]1(C(=O)NO)CC[C@@H](c2cncc(F)c2)C1 (stereo in doubt) [Example 40, (1R,3R*)-1-(3-fluoro-2-methylphenyl)-3-(5-fluoropyridin-3-yl)-N-hydroxycyclopentanecarboxamide]",8400,3600
"Cc1c(F)cccc1C1(C(=O)NO)CCC(c2cccnc2)C1 (stereo not shown) [Example 1, 1-(3-fluoro-2-methylphenyl)-N-hydroxy-3-(pyridin-3-yl)cyclopentanecarboxamide]",1230,190
"O=C(NO)[C@]1(c2ccccc2)CC[C@@H](c2cncc(F)c2)CC1 [Example 13, (1 r,4r)-4-(5-fluoropyridin-3-yl)-N-hydroxy-1-phenylcyclohexanecarboxamide]",48800,6400
"O=C(NO)[C@]1(c2ccccc2)CC[C@H](c2cncc(F)c2)CC1 [Example 14, (1s,4s)-4-(5-fluoropyridin-3-yl)-N-hydroxy-1-phenylcyclohexanecarboxamide]",> 50000,> 50000
"O=C(NO)C1(c2cccc(F)c2F)CCCC1 [Example 15, 1-(2,3-difluorophenyl)-N-hydroxycyclopentanecarboxamide]",18500,2500
"O=C(NO)C1(c2cccc3c2OCC3)CCCC1 [Example 16, 1-(2,3-dihydrobenzofuran-7-yl)-N-hydroxycyclopentanecarboxamide]",> 50000,> 50000
"Cc1c(Cl)cccc1C1(C(=O)NO)CCCC1 [Example 17, 1-(3-chloro-2-methylphenyl)-N-hydroxycyclopentanecarboxamide]",2530,280
"Cc1c(F)cccc1C1(C(=O)NO)CCCC1 [Example 18, 1-(3-fluoro-2-methylphenyl)-N-hydroxycyclopentanecarboxamide]",1700,270
"O=C(NO)C1(c2ccccc2F)CCCC1 [Example 19, 1-(2-fluorophenyl)-N-hydroxycyclopentanecarboxamide]",44700,4600
"O=C(NO)C1(c2ccc(Cl)cc2)CCCC1 [Example 20, 1-(4-chlorophenyl)-N-hydroxycyclopentanecarboxamide]",> 50000,24000
"O=C(NO)C1(c2ccccc2)CCCC1 [Example 21, N-Hydroxy-1-phenylcyclopentanecarboxamide]",> 50000,11400
"O=C(NO)C1(c2c(F)cccc2Cl)CCCC1 [Example 22, 1-(2-Chloro-6-fluorophenyl)-N-hydroxycyclopentanecarboxamide]",15600,2500
"COc1ccccc1C1(C(=O)NO)CCCC1 [Example 23, N-Hydroxy-1-(2-methoxyphenyl)cyclopentanecarboxamide]",> 50000,> 50000

SMILES,IC50 [1] [nM],IC50 [2] [nM]
"Cc1ccccc1C1(C(=O)NO)CCCC1 [Example 24, N-Hydroxy-1-o-tolylcyclopentanecarboxamide]",8120,730
"Cc1cccc(C2(C(=O)NO)CCCC2)c1 [Example 25, N-Hydroxy-1-m-tolylcyclopentanecarboxamide]",43700,8200
"O=C(NO)C1(c2ccccc2Cl)CCCC1 [Example 26, 1-(2-Chlorophenyl)-N-hydroxycyclopentanecarboxamide]",15100,1900
"N#Cc1ccccc1C1(C(=O)NO)CCCC1 [Example 27, 1-(2-Cyanophenyl)-N-hydroxycyclopentanecarboxamide]",> 50000,> 50000
"N#Cc1cccc(C2(C(=O)NO)CCCC2)c1 [Example 28, 1-(3-Cyanophenyl)-N-hydroxycyclopentanecarboxamide]",> 50000,> 50000
"Cc1c(C2(C(=O)NO)CCCC2)ccc(F)c1F [Example 29, 1-(3,4-Difluoro-2-methylphenyl)-N-hydroxycyclopentanecarboxamide]",1410,150
"Cc1c(F)cc(F)cc1C1(C(=O)NO)CCCC1 [Example 30, 1-(3,5-Difluoro-2-methylphenyl)-N-hydroxycyclopentanecarboxamide]",2630,330
"Cc1cccc(Cl)c1C1(C(=O)NO)CCCC1 [Example 31, 1-(2-Chloro-6-methylphenyl)-N-hydroxycyclopentanecarboxamide]",8100,910
"CCc1ccccc1C1(C(=O)NO)CCCC1 [Example 32, 1-(2-Ethylphenyl)-N-hydroxycyclopentanecarboxamide]",6500,1100
"COc1cccc(C2(C(=O)NO)CCCC2)c1C(F)(F)F [Example 33, N-Hydroxy-1-(3-methoxy-2-(trifluoromethyl)phenyl)cyclopentanecarboxamide]",> 50000,> 50000
"O=C(NO)C1(c2ccccc2C(F)(F)F)CCCC1 [Example 34, N-Hydroxy-1-(2-(trifluoromethyl)phenyl)cyclopentanecarboxamide]",46000,11000
"Cc1cc(F)ccc1C1(C(=O)NO)CCCC1 [Example 35, 1-(4-Fluoro-2-methylphenyl)-N-hydroxycyclopentanecarboxamide]",5600,570
"Cc1ccc(F)cc1C1(C(=O)NO)CCCC1 [Example 36, 1-(5-Fluoro-2-methylphenyl)-N-hydroxycyclopentanecarboxamide]",7500,830
"Cc1cccc(F)c1C1(C(=O)NO)CCCC1 [Example 37, 1-(2-Fluoro-6-methylphenyl)-N-hydroxycyclopentanecarboxamide]",12000,1500
"O=C(NO)C1(c2cccc3ccsc23)CCCC1 [Example 38, 1-(Benzo[b]thiophen-7-yl)-N-hydroxycyclopentanecarboxamide]",4600,610
"O=C(NO)[C@@]1(c2ccccc2)CC[C@@H](c2cncc(F)c2)C1 [Example 41, (1S,3R)-3-(5-fluoropyridin-3-yl)-N-hydroxy-1-phenylcyclopentanecarboxamide]",13000,1900
"O=C(NO)[C@@]1(c2ccccc2)CC[C@H](c2cncc(F)c2)C1 [Example 42, (1S,3S)-3-(5-fluoropyridin-3-yl)-N-hydroxy-1-phenylcyclopentanecarboxamide]",7200,1400
"Cc1c(F)cccc1[C@]1(C(=O)NO)CC[C@@H](c2cc(F)cnc2C2CC2)C1 [Example 43, (1S,3R)-3-(2-cyclopropyl-5-fluoropyridin-3-yl)-1-(3-fluoro-2-methylphenyl)-N-hydroxycyclopentanecarboxamide]",610,240
"Cc1c(F)cccc1[C@]1(C(=O)NO)CC[C@@H](c2cc3c(cnn3C)cc2F)C1 [Example 81, (1S,3R)-3-(5-Fluoro-1-methyl-1H-indazol-6-yl)-1-(3-fluoro-2-methylphenyl)-N-hydroxycyclopentanecarboxamide]",580,150
"Cc1c(F)cccc1[C@]1(C(=O)NO)CC[C@@H](Oc2ccc3cnn(C)c3c2)C1 [Example 91, (1S,3R)-1-(3-Fluoro-2-methylphenyl)-N-hydroxy-3-((1-methyl-1H-indazol-6-yl)oxy)cyclopentanecarboxamide]",1600,290
